# US20050288347A1, “Certain triazole-based compounds, compositions, and uses thereof” (priority 2004, published 2005)
# “Also recorded” adds a separate entry of the source.
# Target: protein kinase
# Assay: HTS ATP-utilizing enzyme assay, off-chip mobility-shift format (Caliper HTS 250)
# Type: biochemical, human
# Conditions: kinase(s) for which the compound exhibits protein kinase inhibitory activity; test compound 10 μM; active = greater than three-sigma from the mean activity of inactive compounds
# Summary of the method: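 Single-point screen at 10 μM compound in HEPES pH 7.5 buffer with Triton X-100 and BSA, 2.5 h at 20–22 °C. Substrate-to-phosphopeptide ratio measured by off-chip microfluidic mobility shift; EDTA wells as 100% and DMSO wells as 0% control, hits called at three-sigma limits.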
row,Compound,Kinase
1,"O=C(O)CSc1nnc(-c2cccs2)[nH]1 [2-(5-(thiophen-2-yl)-4H-1,2,4-triazol-3-ylthio)acetic acid]",DYRK2; also recorded: GSK3-β; also recorded: GSK3-α
2,"N#CCSc1nnc(-c2cccs2)[nH]1 [2-(5-(thiophen-2-yl)-4H-1,2,4-triazol-3-ylthio)acetonitrile]",DYRK2; also recorded: FLT-3; also recorded: AURORA-A
3,"COc1ccccc1-n1c(SCC(=O)O)nnc1C1CCCCC1 [2-(5-cyclohexyl-4-(2-methoxyphenyl)-4H-1,2,4-triazol-3-ylthio)acetic acid]",GSK3-β
4,"CCn1c(SCC(=O)c2ccccc2)nnc1C1CCCCC1 [2-(5-cyclohexyl-4-ethyl-4H-1,2,4-triazol-3-ylthio)-1-phenylethanone]",SRC
5,"CCn1c(SCC#N)nnc1C1CCCCC1 [2-(5-cyclohexyl-4-ethyl-4H-1,2,4-triazol-3-ylthio)acetonitrile]",AURORA-A and MSK1
6,"N#CCSc1nnc(C2CCCCC2)[nH]1 [2-(5-cyclohexyl-4H-1,2,4-triazol-3-ylthio)acetonitrile]",GSK3-α
7,"Cc1cccc(-c2nnc(SCC(=O)O)[nH]2)c1 [2-(5-m-tolyl-4H-1,2,4-triazol-3-ylthio)acetic acid]",GSK3-β; also recorded: DYRK2; also recorded: AURORA-A
8,"Cc1nnc(SCC(=O)c2ccccc2)[nH]1 [2-(5-methyl-4H-1,2,4-triazol-3-ylthio)-1-phenylethanone]",GSK3-α; also recorded: GSK3-β; also recorded: DYRK2
9,"Cc1nnc(SCC(=O)O)[nH]1 [2-(5-methyl-4H-1,2,4-triazol-3-ylthio)acetic acid]",GSK3-β; also recorded: GSK3-α
10,"N#CCSc1nnc(-c2ccccc2)[nH]1 [2-(5-phenyl-4H-1,2,4-triazol-3-ylthio)acetonitrile]",DYRK2; also recorded: FLT-3; also recorded: AURORA-A
11,"CC(C)(C)c1nnc(SCC#N)[nH]1 [2-(5-tert-butyl-4H-1,2,4-triazol-3-ylthio)acetonitrile]",DYRK2; also recorded: GSK3-α
12,"Oc1cc2ccccc2cc1-c1nnc(S)n1Cc1ccco1 [3-(4-(furan-2-ylmethyl)-5-mercapto-4H-1,2,4-triazol-3-yl)naphthalen-2-ol]",AURORA-A
13,"C=CCn1c(S)nnc1-c1cc2ccccc2cc1O [3-(4-allyl-5-mercapto-4H-1,2,4-triazol-3-yl)naphthalen-2-ol]",MSK1

# The remaining lines, values ahead:
row,Kinase,Compound
1,HCK,"Cn1c(Cc2ccccc2)nnc1SCC(N)=O [2-(5-benzyl-4-methyl-4H-1,2,4-triazol-3-ylthio)acetamide]"
2,AURORA-A,"Cn1c(Cc2ccccc2)nnc1SCC#N [2-(5-benzyl-4-methyl-4H-1,2,4-triazol-3-ylthio)acetonitrile]"
3,CHEK2,"N#CCSc1nnc(C2CCCCC2)n1-c1ccccc1 [2-(5-cyclohexyl-4-phenyl-4H-1,2,4-triazol-3-ylthio)acetonitrile]"
4,AURORA-A,"Cc1ccc(-n2c(S)nnc2-c2ccccc2O)cc1 [2-(5-mercapto-4-p-tolyl-4H-1,2,4-triazol-3-yl)phenol]"
5,CDK2-cyclinE; also recorded: DAPK1,"Oc1ccccc1-c1nnc(S)n1CCc1ccccc1 [2-(5-mercapto-4-phenethyl-4H-1,2,4-triazol-3-yl)phenol]"
6,DYRK2,"Cc1nnc(SCC(N)=O)n1-c1ccccc1 [2-(5-methyl-4-phenyl-4H-1,2,4-triazol-3-ylthio)acetamide]"
7,MAPKAPK-2 and CDK2-cyclinE and LCK,"Cc1nnc(SCC(=O)N2c3ccccc3Sc3ccccc32)[nH]1 [2-(5-methyl-4H-1,2,4-triazol-3-ylthio)-1-(10H-phenothiazin-10-yl)ethanone]"
8,AURORA-A,"O=C(CSc1nncn1-c1cccnc1)Nc1cccc(C(=O)O)c1 [3-(2-(4-(pyridin-3-yl)-4H-1,2,4-triazol-3-ylthio)acetamido)benzoic acid]"

# Same assay, conditions: test compound 10 μM; active = activity greater than three-sigma from the mean of the predominately inactive population for that enzyme
row,Compound,protein kinase against which the compound exhibits inhibitory activity (Table 3)
1,"Cc1ccc(-n2c(SCCO)nnc2-c2ccncc2)cc1 [2-(5-(pyridin-4-yl)-4-p-tolyl-4H-1,2,4-triazol-3-ylthio)ethanol]",GSK3-β; also recorded: GSK3-α
2,"OCCSc1nnc(-c2cccs2)[nH]1 [2-(5-(thiophen-2-yl)-4H-1,2,4-triazol-3-ylthio)ethanol]",DYRK2; also recorded: FLT-3; also recorded: AURORA-A
3,"O=S(=O)(CCSc1nnc(Cc2ccccc2)n1-c1ccccc1)Nc1ccccc1 [2-(5-benzyl-4-phenyl-4H-1,2,4-triazol-3-ylthio)-N-phenylethanesulfonamide]",AKT2
4,"Cc1cccc(-c2nnc(SCC(N)=O)[nH]2)c1 [2-(5-m-tolyl-4H-1,2,4-triazol-3-ylthio)acetamide]",CHEK2; also recorded: AURORA-A; also recorded: FLT-3
5,"OCCSc1nnc(-c2ccccc2)[nH]1 [2-(5-phenyl-4H-1,2,4-triazol-3-ylthio)ethanol]",FLT-3; also recorded: AURORA-A; also recorded: DYRK2
6,"COc1ccc(-c2nnc(SCc3ccccc3C#N)[nH]2)cc1 [2-((5-(4-methoxyphenyl)-4H-1,2,4-triazol-3-ylthio)methyl)benzonitrile]",AURORA-A; also recorded: CHEK2; also recorded: GSK3-α
7,"N#Cc1ccccc1CSc1nnc(-c2cccnc2)[nH]1 [2-((5-(pyridin-3-yl)-4H-1,2,4-triazol-3-ylthio)methyl)benzonitrile]",AURORA-A; also recorded: GSK3-α; also recorded: CHEK2
8,"N#Cc1ccccc1CSc1nnc(-c2cccs2)[nH]1 [2-((5-(thiophen-2-yl)-4H-1,2,4-triazol-3-ylthio)methyl)benzonitrile]",AURORA-A; also recorded: CHEK2; also recorded: GSK3-α
9,"c1ccc2[nH]c(CSc3nnc(C4CCCC4)[nH]3)nc2c1 [2-((5-cyclopentyl-4H-1,2,4-triazol-3-ylthio)methyl)-1H-benzo[d]imidazole]",GSK3-α; also recorded: AURORA-A; also recorded: DYRK2
10,"Cc1nnc(SCc2nc3ccccc3[nH]2)[nH]1 [2-((5-methyl-4H-1,2,4-triazol-3-ylthio)methyl)-1H-benzo[d]imidazole]",DYRK2; also recorded: FLT-3; also recorded: AURORA-A
11,"Cc1nnc(SCc2ccccc2C#N)[nH]1 [2-((5-methyl-4H-1,2,4-triazol-3-ylthio)methyl)benzonitrile]",AURORA-A; also recorded: GSK3-β; also recorded: GSK3-α
12,"N#Cc1ccccc1CSc1nnc(-c2ccccc2)[nH]1 [2-((5-phenyl-4H-1,2,4-triazol-3-ylthio)methyl)benzonitrile]",AURORA-A; also recorded: CHEK2; also recorded: GSK3-β
13,"c1csc(-c2nnc(SCCN3CCCC3)[nH]2)c1 [3-(2-(pyrrolidin-1-yl)ethylthio)-5-(thiophen-2-yl)-4H-1,2,4-triazole]",GSK3-α; also recorded: GSK3-β; also recorded: DYRK2
14,"CCOCCSc1nnc(-c2ccc(OC(F)(F)F)cc2)[nH]1 [3-(2-ethoxyethylthio)-5-(4-(trifluoromethoxy)phenyl)-4H-1,2,4-triazole]",AURORA-A; also recorded: GSK3-β
15,"CCOCCSc1nnc(-c2cccs2)[nH]1 [3-(2-ethoxyethylthio)-5-(thiophen-2-yl)-4H-1,2,4-triazole]",AURORA-A; also recorded: DYRK2; also recorded: GSK3-β
16,"CCOCCSc1nnc(-c2ccccc2)[nH]1 [3-(2-ethoxyethylthio)-5-phenyl-4H-1,2,4-triazole]","3-(2-ethoxyethylthio)-5-phenyl-4H-1,2,4-triazole AURORA-A and FLT-3 and DYRK2"
17,"COCCSc1nnc(-c2ccc(OC)cc2)n1-c1ccccc1 [3-(2-methoxyethylthio)-5-(4-methoxyphenyl)-4-phenyl-4H-1,2,4-triazole]",SYK and INSR and PRAK
18,"CCOCCSc1nnc(-c2ccc(Cl)c(Cl)c2)[nH]1 [3-(3,4-dichlorophenyl)-5-(2-ethoxyethylthio)-4H-1,2,4-triazole]",AURORA-A; also recorded: GSK3-β; also recorded: GSK3-α
19,"CS(=O)(=O)c1ccc(CSc2nnc(-c3ccc(Cl)c(Cl)c3)[nH]2)cc1 [3-(3,4-dichlorophenyl)-5-(4-(methylsulfonyl)benzylthio)-4H-1,2,4-triazole]",AURORA-A; also recorded: FLT-3
20,"Clc1ccccc1CSc1nncn1-c1cccnc1 [3-(3-(2-chlorobenzylthio)-4H-1,2,4-triazol-4-yl)pyridine]",PDGFRR-α
21,"FC(F)(F)c1cccc(-c2nnc(SCc3cccc(I)c3)[nH]2)c1 [3-(3-iodobenzylthio)-5-(3-(trifluoromethyl)phenyl)-4H-1,2,4-triazole]",CHEK2
22,"COc1ccc(-c2nnc(SCc3cccc(I)c3)[nH]2)cc1 [3-(3-iodobenzylthio)-5-(4-methoxyphenyl)-4H-1,2,4-triazole]",AURORA-A
23,"Cc1nnc(SCc2cccc(I)c2)[nH]1 [3-(3-iodobenzylthio)-5-methyl-4H-1,2,4-triazole]",AURORA-A; also recorded: GSK3-α; also recorded: DYRK2
24,"Ic1cccc(CSc2nnc(-c3ccccc3)[nH]2)c1 [3-(3-iodobenzylthio)-5-phenyl-4H-1,2,4-triazole]",AURORA-A; also recorded: c-TAK1
25,"Cc1ccc(-c2nnc(SCCC(=O)O)n2-c2ccc(C)cc2)cc1 [3-(4,5-dip-tolyl-4H-1,2,4-triazol-3-ylthio)propanoic acid]",DAPK1
26,"O=C(O)CCSc1nnc(-c2ccc(O)cc2)n1Cc1ccccc1 [3-(4-benzyl-5-(4-hydroxyphenyl)-4H-1,2,4-triazol-3-ylthio)propanoic acid]",GSK3-β; also recorded: GSK3-α
